This note sets out measurements from patent US8247595B2, “Organic sulfur compound and its use for controlling harmful arthropod” (Sumitomo Chemical Company, Limited, priority 2007, dated 2012).

Holding throughout (assay type): in vivo
One test has as its system Musca domestica. Briefly: Test Example 2: treated filter paper with sucrose bait, death rate of Musca domestica. The following applies: 500 ppm test solution, 0.7 ml on filter paper, 10 female imagoes, after 24 hours. As to the method: Preparations of the present compounds (1), (2), (3), (4), (5), (6), (7), (8), (9), (10), (13), (18), (23), (24), (25), (26), (27), (28), (29), (30), (31), (32), (33), (34), (35), (38) and (39) obtained according to Formulation Example 44 were diluted so that the active ingredient concentration was 500 ppm to obtain test solutions.
A filter paper having a diameter of 5.5 cm was spread on the bottom of a polyethylene cup having a diameter of 5.5 cm and 0.7 ml of the test solution was added dropwise onto the filter paper. As a bait 30 mg of sucrose was uniformly placed on the filter paper. Into the polyethylene cup, 10 female imagoes of Musca domestica were released and the cup was sealed with a lid. After 24 hours, the number of surviving Musca domestica was examined and the death rate of the pest was calculated.
As a result, in treatments with the present compounds (1), (2), (3), (4), (5), (6), (7), (8), (9), (10), (13), (18), (23), (24), (25), (26), (27), (28), (29), (30), (31), (32), (33), (34), (35), (38) and (39), the death rate of the pest was 70% or more.

Another test deals with Culex pipiens pallens. Briefly: Test Example 4: larvae released into treated water, death rate of Culex pipiens pallens. The following applies: 24 h, active ingredient concentration 3.5 ppm in water, 20 last-instar larvae, after one day. The method, then: Preparations of the present compounds (1), (2), (3), (4), (5), (6), (7), (13), (14), (15), (16), (18), (22), (23), (24), (25), (26), (27), (28), (29), (30), (31), (32), (33), (34), (35), (36), (38) and (39) obtained according to Formulation Example 44 were diluted so that the active ingredient concentration was 500 ppm to obtain test solutions.
To 100 mL of ion-exchanged water, 0.7 ml of the test solution was added (active ingredient concentration: 3.5 ppm). Into the solution, 20 last-instar larvae of Culex pipiens pallens were released. After one day, the number of surviving Culex pipiens pallens was examined and the death rate of the pest was calculated.
As a result, in treatments with the present compounds (1), (2), (3), (4), (5), (6), (7), (13), (14), (15), (16), (18), (22), (23), (24), (25), (26), (27), (28), (29), (30), (31), (32), (33), (34), (35), (36), (38) and (39), the death rate of the pest was 90% or more.

In a further test the test system is Blattalla germanica. Briefly: Test Example 3: treated filter paper with sucrose bait, death rate of Blattalla germanica. The following applies: 500 ppm test solution, 0.7 ml on filter paper, 2 male imagoes, after 6 days; for pest or weed control at 500 ppm: 144 h. The method, then: Preparations of the present compounds (3), (4), (5), (6), (7), (9), (10), (13), (23), (24), (25), (26), (27), (28), (29), (30), (31), (32), (33), (34), (35), (38) and (39) obtained according to Formulation Example 44 were diluted so that the active ingredient concentration was 500 ppm to obtain test solutions.
A filter paper having a diameter of 5.5 cm was spread on the bottom of a polyethylene cup having a diameter of 5.5 cm and 0.7 ml of the test solution was added dropwise onto the filter paper. As a bait 30 mg of sucrose was uniformly placed on the filter paper. Into the polyethylene cup, 2 male imagoes of Blattalla germanica were released and the cup was sealed with a lid. After 6 days, the number of surviving Blattalla germanica was examined and the death rate of the pest was calculated.
As a result, in treatments with the present compounds (3), (4), (5), (6), (7), (9), (10), (13), (23), (24), (25), (26), (27), (28), (29), (30), (31), (32), (33), (34), (35), (38) and (39), the death rate of the pest was 100%.

Test [1] has as its system Haemaphysalis longicornis. Briefly: Test Example 5: treated filter paper pouch, death rate of ticks. The following applies: 48 h, filter paper treated with 100 mg/m^2, non-blood-sucking nymphal ticks, 10 ticks/group, after 2 days, read-out: death rate of the tick. The method, then:
Five milligrams of any one of the present compounds (19), (23), (24), (27), (28), (29), (32), (33), (35), (38) and (39) was dissolved in 10 mL of acetone. One milliliter of the acetone solution was uniformly applied on one side of a filter paper (TOYO No. 2; 5×10 cm), so that the filter paper was treated with 100 mg/m^2 of the present compound. After drying, the filter paper was folded in two and its edges were clipped to make a pouch. Non-blood-sucking nymphal ticks (Haemaphysalis longicornis, 10 ticks/group) were put into the pouch, and the pouch was sealed with clips. After 2 days, the number of surviving ticks was examined and the death rate was calculated.
As a result, in treatments with the present compounds (19), (23), (24), (27), (28), (29), (32), (33), (35), (38) and (39), the death rate of the tick was 90%.

For the compound `C#CCCCCC(C(=O)OC)S(=O)(=O)CCC(F)(F)F` (stereo not shown) [present compound (1), methyl 2-(3,3,3-trifluoropropylsulfonyl)-7-octynoate], in the test with Musca domestica, the pest or weed control at 500 ppm is not below 70%. In addition, the pest or weed control at 3.5 ppm in the test on Culex pipiens pallens was not below 90%.
In the same order, the values of `C#CCCCCC(F)(C(=O)OC)S(=O)(=O)CCC(F)(F)F` (stereo not shown) [present compound (2), methyl 2-fluoro-2-(3,3,3-trifluoropropylsulfonyl)-7-octynoate] are not below 70% and not below 90%.
In the case of `C#CCCCCC(F)(C(N)=O)S(=O)(=O)CCC(F)(F)F` (stereo not shown) [present compound (3), 2-fluoro-2-(3,3,3-trifluoropropylsulfonyl)-7-octynamide], the pest or weed control at 500 ppm in the test with Musca domestica is not below 70%; with Blattalla germanica, 100%. For the same compound, the pest or weed control at 3.5 ppm with Culex pipiens pallens is not below 90%.
`C#CCCCCC(Cl)(C(=O)OC)S(=O)(=O)CCC(F)(F)F` (stereo not shown) [present compound (4), methyl 2-chloro-2-(3,3,3-trifluoropropylsulfonyl)-7-octyonate]: the “death rate of the pest” value with Blattalla germanica worked out at 100%.
On to `C#CCCCCC(Cl)(C(N)=O)S(=O)(=O)CCC(F)(F)F` (stereo not shown) [present compound (5), 2-chloro-2-(3,3,3-trifluoropropylsulfonyl)-7-octynamide], for which the pest or weed control at 500 ppm with Musca domestica is not below 70%; in the test on Blattalla germanica, 100%. In addition, in the test with Culex pipiens pallens, the pest or weed control at 3.5 ppm is not below 90%.
For `C#CCCCCC(C)(C(=O)OC)S(=O)(=O)CCC(F)(F)F` (stereo not shown) [present compound (6), methyl 2-methyl-2-(3,3,3-trifluoropropylsulfonyl)-7-octyonate], the “death rate of the pest” value in the test on Blattalla germanica was 100%.
`C#CCCCCC(C)(C(N)=O)S(=O)(=O)CCC(F)(F)F` (stereo not shown) [present compound (7), 2-methyl-2-(3,3,3-trifluoropropylsulfonyl)-7-octynamide]: the pest or weed control at 500 ppm in the test with Musca domestica is not below 70%; with Blattalla germanica, 100%. Besides, in the test with Culex pipiens pallens, the pest or weed control at 3.5 ppm was not below 90%.
The compound `C#CCCC(C(=O)OC)S(=O)(=O)CCC(F)(F)F` (stereo not shown) [present compound (8), methyl 2-(3,3,3-trifluoropropylsulfonyl)-5-hexynoate] came in with a pest or weed control at 500 ppm in the test on Musca domestica not below 70%.
As for `C#CCCC(F)(C(=O)OC)S(=O)(=O)CCC(F)(F)F` (stereo not shown) [present compound (9), methyl 2-fluoro-2-(3,3,3-trifluoropropylsulfonyl)-5-hexynoate], the pest or weed control at 500 ppm was not below 70% in the test on Musca domestica and 100% in the test on Blattalla germanica.
For the compound `C#CCCC(F)(C(N)=O)S(=O)(=O)CCC(F)(F)F` (stereo not shown) [present compound (10), 2-fluoro-2-(3,3,3-trifluoropropylsulfonyl)-5-hexynamide], the results for the pest or weed control at 500 ppm with Musca domestica and in the test with Blattalla germanica were not below 70% and 100%, respectively.
Turning to `C#CCCCC(F)(C(N)=O)S(=O)(=O)CCC(F)(F)F` (stereo not shown) [present compound (13), 2-fluoro-2-(3,3,3-trifluoropropylsulfonyl)-6-heptynamide], the figures for the pest or weed control at 500 ppm in the test on Musca domestica and with Blattalla germanica were not below 70% and 100%, respectively. The pest or weed control at 3.5 ppm in the test with Culex pipiens pallens is not below 90%.
As to `C#CCCCCCC(C(=O)OC)S(=O)(=O)CCC(F)(F)F` (stereo not shown) [present compound (14), methyl 2-(3,3,3-trifluoropropylsulfonyl)-8-nonynoate], the pest or weed control at 3.5 ppm in the test with Culex pipiens pallens is not below 90%.
For the compound `C#CCCCCCC(F)(C(=O)OC)S(=O)(=O)CCC(F)(F)F` (stereo not shown) [present compound (15), methyl 2-fluoro-2-(3,3,3-trifluoropropylsulfonyl)-8-nonynoate], in the test with Culex pipiens pallens, the pest or weed control at 3.5 ppm was not below 90%.
With `C#CCCCCCC(F)(C(N)=O)S(=O)(=O)CCC(F)(F)F` (stereo not shown) [present compound (16), 2-fluoro-2-(3,3,3-trifluoropropylsulfonyl)-8-nonynamide], the pest or weed control at 3.5 ppm with Culex pipiens pallens is not below 90%.
With `COC(=O)C(Cl)(CC=CC(F)(F)F)S(=O)(=O)CCC(F)(F)F` (stereo not shown) [present compound (18), methyl 2-chloro-6,6,6-trifluoro-2-(3,3,3-trifluoropropylsulfonyl)-4-hexenoate], the pest or weed control at 500 ppm with Musca domestica is not below 70%. In addition, in the test on Culex pipiens pallens, the pest or weed control at 3.5 ppm was not below 90%.
On to `N#CC(CC=CC(F)(F)F)S(=O)(=O)CCC(F)(F)F` (stereo not shown) [present compound (19), 6,6,6-trifluoro-2-(3,3,3-trifluoropropylsulfonyl)-4-hexenenitrile], for which, in test [1], the pest or weed control at 100 mg/m2 amounted to 90%.
For `C#CCCCCC(C#N)S(=O)(=O)CCC(F)(F)F` (stereo not shown) [present compound (23), 2-(3,3,3-trifluoropropylsulfonyl)-7-octynenitrile], the pest or weed control at 100 mg/m2 in test [1] came to 90%. Also, the figures for the pest or weed control at 500 ppm in the test on Musca domestica and in the test with Blattalla germanica were not below 70% and 100%, respectively. The pest or weed control at 3.5 ppm with Culex pipiens pallens was not below 90%.
As to `C#CCCCCCCC(C#N)S(=O)(=O)CCC(F)(F)F` (stereo not shown) [present compound (25), 2-(3,3,3-trifluoropropylsulfonyl)-9-decynenitrile], the pest or weed control at 500 ppm in the test on Musca domestica is not below 70%; with Blattalla germanica, 100%. In addition, the pest or weed control at 3.5 ppm in the test with Culex pipiens pallens was not below 90%.
As to `C#CCCCCC(Cl)(C#N)S(=O)(=O)CCC(F)(F)F` (stereo not shown) [present compound (26), 2-chloro-2-(3,3,3-trifluoropropylsulfonyl)-7-octynenitrile], the pest or weed control at 500 ppm is not below 70% with Musca domestica and 100% with Blattalla germanica. Also, in the test on Culex pipiens pallens, the pest or weed control at 3.5 ppm was not below 90%.
For `C#CCC(CC)CCC(C(=O)OC)S(=O)(=O)CCC(F)(F)F` (stereo not shown) [present compound (30), methyl 5-ethyl-2-(3,3,3-trifluoropropylsulfonyl)-7-octynoate] the same measures were not below 70%, 100% and not below 90%.
For `C#CCC(CC)CCC(Cl)(C(=O)OC)S(=O)(=O)CCC(F)(F)F` (stereo not shown) [present compound (31), methyl 2-chloro-5-ethyl-2-(3,3,3-trifluoropropylsulfonyl)-7-octynoate], the values for the pest or weed control at 500 ppm in the test with Musca domestica and in the test on Blattalla germanica were not below 70% and 100%, respectively. Besides, in the test with Culex pipiens pallens, the pest or weed control at 3.5 ppm was not below 90%.
Consider `CC(C#N)(C/C=C/C(F)(F)F)S(=O)(=O)CCC(F)(F)F` (stereo not shown) [present compound (34), 6,6,6-trifluoro-2-methyl-2-(3,3,3-trifluoropropylsulfonyl)-4-hexenenitrile], for which the pest or weed control at 500 ppm was not below 70% with Musca domestica and 100% with Blattalla germanica. The pest or weed control at 3.5 ppm in the test with Culex pipiens pallens is not below 90%.
As for `CCC(=CCC(C(=O)OC)S(=O)(=O)CCC(F)(F)F)C(F)(F)F` (stereo not shown) [present compound (36), methyl 5-trifluoromethyl-2-(3,3,3-trifluoropropylsulfonyl)-4-heptenoate], the pest or weed control at 3.5 ppm with Culex pipiens pallens is not below 90%.
